Consider one molecule from US5602176A, “Phenyl carbamate” (priority 1987, dated 1997).

What is called inhibition is the change of the read-out against control, counted positive when it falls.

For data set [1], the system named is rat hippocampal slices (indirect method for acetylcholinesterase (AChE) inhibition). Description: Electrically evoked 3H-acetylcholine release from rat hippocampal slices. It is filed as cell-based. The source says: Electrically evoked ^3 H-acetylcholine release from rat hippocampal slices
Electrically evoked ^3 H-acetylcholine (^3 H-ACh) release from rat hippocampal slices is a functional in vitro model to investigate presynaptic muscarinic autoreceptor agonists and antagonists. This model can also be used as an indirect method to evaluate drugs which inhibit acetylcholinesterase (AChE). Inhibition of AChE activity leads to the accumulation of endogenous ACh which then interacts with presynaptic muscarinic autoreceptors and inhibits further release of ^3 H-ACh.
Rat hippocampal slices (Wistar strain, 180-200 g) are prepared by chopping into cross sections whole hippocampal slices at a distance of 0.3 mm with a McIlwain tissue chopper. Hippocampal slices obtained from 3 rats are incubated for 30 min. at 23° C. in 6 ml Krebs-Ringer containing 0.1 uCi ^3 H-choline and transferred into the superfusion chamber and superfused with Kreb's medium containing 10 μM hemicholinium-3 at a rate of 1.2 ml/min. at 30° C. Collection of 5 min. fractions of the superfusate begins after 60 min. of superfusion. Two periods of electrical stimulation (2 Hz rectangular pulses 2 msec, 10 mA, 2 min.) are applied after 70 min. (S1) and after 125 min. (S2) of superfusion. […] At the end of the experiments the slices are solubilized in conc. formic acid and tritium content is determined in the superfusate and the solubilized slices. Tritium outflow is expressed as the fractional rate of tritium outflow per min. Electrically evoked tritium outflow is calculated by subtraction of the extrapolated basal tritium outflow from the total tritium outflow during the two min. of electrical stimulation and the following 13 min. and is expressed as percent of the tritium content at the beginning of the sample collection. Drug effects on stimulation evoked tritium outflow are expressed as the ratios S2 /S1. All experiments are run in dublicates using a programmable 12 channel superfusion system. For the calculation a computer program is used.

Data set [2] in a line: In vitro skin diffusion test (penetration through the skin). The data set is classed as in vitro ADME. As to conditions: rat skin; listed as compound A. The source says: The penetration through the skin of the compounds for administration according to the invention may be observed in standard in vitro or in vivo tests.
One in vitro test is the well known diffusion test which may be effected according to the principles set out in GB 2098865 A and by T. J. Franz in J. Invest. Dermatol. (1975) 64, 194-195. Solutions containing the active agent in unlabelled or radioactively labelled form are applied to one side of isolated pieces of intact human skin or hairless rat skin about 2 cm^2 in area. The other side of the skin is in contact with physiological saline. The amount of active agent in the saline is measured in conventional manner, e.g. by HPLC or spectrophotometric techniques, or by determining the radioactivity.
In this test using rat skin the following penetration rates, for example, have been found: […]

A further data set deals with AChE (Rattus norvegicus, UniProt P37136). It is filed as in vivo. As to conditions: Transdermal 30 μmol/kg. More on the design: from tissue; host or cells: male OFA rats: cortex, hippocampus, striatum, pons/medulla, heart, blood. Here is the method:
The AChE activity is measured according to the method described by Ellman (Arch. Biochem. Biophys. 82, 70, 1959). Rat brain tissue is homogenized in cold phosphate buffer pH 7.3 (0.25 mM) containing 0.1% of Triton X-100. After centrifugation aliquots of the clear supernatant is used as enzyme source. The enzyme is preincubated with different concentrations of the inhibitor. After different times, substrate (acetylthiocholinjodide 0.5 mM) is added and the remaining activity determined.
The compounds are dissolved in or diluted with n-heptane to a concentration of 1 or 3 mg/20 μl. […] The application place is immediately covered using a thin plastic film and a plaster. The animal has no access to the plaster. Various times after the administration the animals are killed by decapitation and the remaining AChE activity is measured.

Structures are written as SMILES. Where two headings read alike, the source gives them in different places.

AChE, sequence (P37136 32-614): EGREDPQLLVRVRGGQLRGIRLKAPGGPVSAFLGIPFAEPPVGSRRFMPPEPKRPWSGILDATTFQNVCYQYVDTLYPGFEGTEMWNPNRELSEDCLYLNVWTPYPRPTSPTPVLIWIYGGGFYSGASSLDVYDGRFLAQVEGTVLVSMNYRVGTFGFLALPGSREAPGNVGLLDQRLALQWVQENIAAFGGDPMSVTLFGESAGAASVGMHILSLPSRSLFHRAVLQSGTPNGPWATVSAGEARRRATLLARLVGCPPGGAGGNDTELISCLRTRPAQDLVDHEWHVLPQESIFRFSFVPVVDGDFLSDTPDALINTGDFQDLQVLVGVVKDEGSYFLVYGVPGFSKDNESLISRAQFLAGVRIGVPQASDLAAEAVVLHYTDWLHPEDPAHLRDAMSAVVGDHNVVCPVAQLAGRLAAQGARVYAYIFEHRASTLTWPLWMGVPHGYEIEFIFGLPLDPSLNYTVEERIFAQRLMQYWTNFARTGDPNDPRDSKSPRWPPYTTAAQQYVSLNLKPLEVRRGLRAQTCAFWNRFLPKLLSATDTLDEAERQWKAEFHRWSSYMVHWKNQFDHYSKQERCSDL

With `CCN(C)C(=O)Oc1cccc([C@H](C)N(C)C)c1` [Compound A, (S)-N-ethyl-3-[(1-dimethylamino)ethyl]-N-methyl-phenyl-carbamate], the “antagonism of the inhibitory effect by atropine” value in data set [1] is given as “can be antagonized by atropine”. Further, the inhibition at 100 µM in data set [1] (Rattus norvegicus, 3 h, 100 μM, read-out: inhibition of electrically evoked 3H-ACh release from hippocampal slices) was roughly 40%. The same molecule returned a penetration rate in data set [2] of 23.6±14.9%. The “AChE activity in % of controls ± SD, Blood” value on AChE (0.5 hours after treatment) is on record as 71.3 ± 12.3 % of controls. On AChE (6 hours after treatment), the “AChE activity in % of controls ± SD, Cortex” value is given as 42.4 ± 11.7 % of controls and the “AChE activity in % of controls ± SD, Striatum” value is listed as 65.9 ± 15.5 % of controls. Further, the “AChE activity in % of controls ± SD, Blood” value at AChE (24 hours after treatment) is reported as 78.1 ± 17.8 % of controls.
